Source: PMC12731105, “Design and Synthesis of New Quinoxaline Analogs to Regenerate Sensory Auditory Hair Cells” (Cells, 2025)

What was measured:
mouse organ of Corti = assay: EdU proliferation assay in the mouse organ of Corti; format: in vivo; conditions: mice, single IP 300 mg/kg; for EdU-positive cells in the OC at 72 h: 72 h treatment group; for EdU-positive cells in the OC at 24 h and 48 h: EdU 50 mg/kg, 4 h, unpaired T-test, p < 0.05
Procedure: C57BL/6J male and female mice between postnatal day 24 and 30 P-24-30) were randomized into control and experimental groups (9 mice per group per compound), with each experimental group receiving a single intraperitoneal (IP) injection of Qx-294 or Qx-301 at a dose of 300 mg/kg body weight, dissolved in dimethyl sulfoxide (DMSO). Controls consisted of treatment with DMSO alone (vehicle). A total of 90 adult wild-type C57/BL6 mice were used in this study. Based on the analysis, animals were examined at various times following treatment as described below.
In vitro cell proliferation effects of all ten initial compounds (Figure 1A,B) were tested on HEI-OC1, Neuro-2A and HT-1080 cells by TACS® 3-(4,5-dimethylthiazol-2-yl)-2,5-diphenyltetrazolium bromide (MTT) Cell Proliferation Assay (R&D Systems, Minneapolis, MN, USA, 4890-025-K), following the manufacturer’s protocol. Absorbance was measured with SpectraMax® M Series Multi-Mode Microplate Reader with Soft Max Pro 7.2 GxP Software (Molecular Devices, Sunnyvale, CA, USA), and the average OD in control cells was taken as 100% of viability. Upon selecting the most viable compounds (Qx-294 and Qx-301), we proceeded with in vivo experiments. For zebrafish treatment, animals were incubated for varied times with different concentrations (50, 100, 150, 200, 250, and 300 μg/mL) of Qx-294 or Qx-301 diluted in swimming (E3) media or administered via IP injections. Mice treatment followed the same procedures as described in [18]. Following treatment, animals or tissue samples were incubated in Click-it EdU or Click-it Plus TUNEL kits (Thermo Scientific, Waltham, MA, USA), following the manufacturer’s instructions to label proliferating and apoptotic cells, respectively.
Cell numbers in mouse cochleae or fish, as well as fish neuromast morphologies, were evaluated in 25 zebrafish per drug and treatment group across three experimental runs. For mouse analyses, 18 cochleae (from 9 mice) per treatment and three experimental repetitions were examined. Images were analyzed at 200X magnification, obtained from different neuromasts and cochlear regions (apex, middle, and base). HCs were quantified in the mouse OC by counting M7a-positive cells, with HC identity further confirmed by phalloidin-labeled stereocilia. Apoptosis and cell proliferation events, on the other hand, were quantified by counting TUNEL- and EdU-positive cells, respectively. […] The number of HCs (IHCs and OHCs) is expressed as units per 200 μm. […] IHCs and OHCs were counted on reconstructed confocal stacks using NIH ImageJ v1.8.0 software. […] Reliability statistics were calculated in SPSS v22.0. […] Fluorescence incorporation following treatment with FM1-43 was quantified according to [19] using ImageJ. […]

plasma protein = assay: Plasma protein binding (rapid equilibrium dialysis); format: in vitro ADME, mice

SMILES	EdU-positive cells in the OC at 72 h (mouse organ of Corti)	EdU-positive cells in the OC at 24 h and 48 h (mouse organ of Corti)	Plasma protein binding (plasma protein)
c1ccc2nc(N3CCCC3)cnc2c1 [Qx-301, 2-(pyrrolidine)-quinoxaline]	no proliferating (EdU-positive) cells were observed	higher percentage of EdU-positive cells	–
c1ccc2nc(N3CCOCC3)cnc2c1 [Qx-294, 2-(morpholine)-quinoxaline]	no proliferating (EdU-positive) cells were observed	higher percentage of EdU-positive cells	highly protein-bound
